Assays:
Format in all cases: cell-based
Nav 1.7 [1] = molecular target: T1, Nav 1.7 (Homo sapiens (Human), UniProt Q15858); experiment: Nav 1.7 in vitro assay, IonWorks Quattro (IWQ) population patch-clamp; conditions: HEK 293 cells stably transfected with Nav 1.7; 26th pulse to -20 mV
Nav 1.7 [2] = molecular target: T1, Nav 1.7; experiment: Nav 1.7 in vitro PX assay, PatchXpress whole cell voltage clamp; conditions: HEK 293 cells stably transfected with human Nav1.7; for IC50: partially inactivated state (20 to 50% inactivation); for inhibition at 4.9 µM: HEK293, values marked *, read-out: Nav 1.7 PX percent inhibition at 4.9 μM
How it was run: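 HEK293 cells stably expressing human Nav1.7, whole-cell voltage clamp at a holding potential giving 20–50% inactivation; currents elicited by 20 msec pulses to −10 mV at 0.1 Hz.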

Nav 1.5 = Nav 1.5 (Homo sapiens (Human), UniProt Q14524); experiment: Nav 1.5 in vitro assay, IonWorks Quattro (IWQ) population patch-clamp; conditions: HEK 293 cells stably transfected with Nav 1.5; 26th pulse to -20 mV
Sequence of Nav 1.5 (Q14524 whole entry): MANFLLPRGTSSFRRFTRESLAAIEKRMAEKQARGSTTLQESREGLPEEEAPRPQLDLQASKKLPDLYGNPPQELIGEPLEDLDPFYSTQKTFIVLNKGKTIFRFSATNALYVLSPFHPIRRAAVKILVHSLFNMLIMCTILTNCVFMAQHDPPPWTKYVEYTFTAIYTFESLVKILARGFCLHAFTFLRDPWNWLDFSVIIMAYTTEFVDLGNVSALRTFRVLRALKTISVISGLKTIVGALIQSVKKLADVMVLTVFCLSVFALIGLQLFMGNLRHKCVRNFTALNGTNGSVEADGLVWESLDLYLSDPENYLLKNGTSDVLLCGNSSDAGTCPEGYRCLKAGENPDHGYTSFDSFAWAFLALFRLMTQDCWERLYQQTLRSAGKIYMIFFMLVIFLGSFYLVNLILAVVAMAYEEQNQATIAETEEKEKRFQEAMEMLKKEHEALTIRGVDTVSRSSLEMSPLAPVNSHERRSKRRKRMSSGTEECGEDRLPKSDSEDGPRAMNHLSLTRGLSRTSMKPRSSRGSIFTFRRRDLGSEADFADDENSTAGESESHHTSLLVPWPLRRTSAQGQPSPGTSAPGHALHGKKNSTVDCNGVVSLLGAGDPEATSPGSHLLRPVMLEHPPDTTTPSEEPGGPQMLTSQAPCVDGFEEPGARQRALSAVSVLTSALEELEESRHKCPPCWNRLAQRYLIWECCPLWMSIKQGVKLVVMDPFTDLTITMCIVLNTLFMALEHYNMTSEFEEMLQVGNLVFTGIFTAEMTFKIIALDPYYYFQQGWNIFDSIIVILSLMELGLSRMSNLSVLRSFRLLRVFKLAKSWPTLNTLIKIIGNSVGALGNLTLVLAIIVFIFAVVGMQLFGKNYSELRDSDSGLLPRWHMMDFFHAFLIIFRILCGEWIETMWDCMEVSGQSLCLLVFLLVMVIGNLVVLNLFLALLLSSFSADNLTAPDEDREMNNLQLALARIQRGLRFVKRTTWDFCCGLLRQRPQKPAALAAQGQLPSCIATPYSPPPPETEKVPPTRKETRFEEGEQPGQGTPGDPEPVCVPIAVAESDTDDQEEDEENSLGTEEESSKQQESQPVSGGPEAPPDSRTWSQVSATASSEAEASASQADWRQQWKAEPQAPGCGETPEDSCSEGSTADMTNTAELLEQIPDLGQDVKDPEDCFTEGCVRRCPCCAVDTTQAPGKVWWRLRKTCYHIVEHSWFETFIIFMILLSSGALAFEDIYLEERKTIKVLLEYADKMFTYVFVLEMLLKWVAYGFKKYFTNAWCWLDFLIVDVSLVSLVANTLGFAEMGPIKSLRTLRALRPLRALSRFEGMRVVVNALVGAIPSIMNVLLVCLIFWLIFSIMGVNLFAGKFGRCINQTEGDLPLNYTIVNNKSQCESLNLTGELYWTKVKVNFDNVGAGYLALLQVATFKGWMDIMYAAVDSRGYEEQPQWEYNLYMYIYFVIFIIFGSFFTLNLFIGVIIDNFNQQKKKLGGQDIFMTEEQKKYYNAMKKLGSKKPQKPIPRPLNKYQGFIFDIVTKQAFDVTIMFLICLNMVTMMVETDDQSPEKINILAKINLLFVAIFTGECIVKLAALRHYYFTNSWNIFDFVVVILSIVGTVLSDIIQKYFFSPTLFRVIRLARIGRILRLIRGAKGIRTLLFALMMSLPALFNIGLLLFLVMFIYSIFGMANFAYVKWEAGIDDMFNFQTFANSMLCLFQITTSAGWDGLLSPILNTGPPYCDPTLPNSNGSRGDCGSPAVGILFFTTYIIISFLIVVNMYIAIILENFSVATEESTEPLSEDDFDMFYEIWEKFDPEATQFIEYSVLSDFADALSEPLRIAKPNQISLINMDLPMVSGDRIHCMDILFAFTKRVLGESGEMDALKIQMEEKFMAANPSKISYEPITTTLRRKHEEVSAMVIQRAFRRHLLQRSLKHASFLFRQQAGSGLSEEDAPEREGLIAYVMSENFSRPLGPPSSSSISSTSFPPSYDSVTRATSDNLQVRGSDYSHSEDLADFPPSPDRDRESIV

T1 sequence (Q15858 whole entry): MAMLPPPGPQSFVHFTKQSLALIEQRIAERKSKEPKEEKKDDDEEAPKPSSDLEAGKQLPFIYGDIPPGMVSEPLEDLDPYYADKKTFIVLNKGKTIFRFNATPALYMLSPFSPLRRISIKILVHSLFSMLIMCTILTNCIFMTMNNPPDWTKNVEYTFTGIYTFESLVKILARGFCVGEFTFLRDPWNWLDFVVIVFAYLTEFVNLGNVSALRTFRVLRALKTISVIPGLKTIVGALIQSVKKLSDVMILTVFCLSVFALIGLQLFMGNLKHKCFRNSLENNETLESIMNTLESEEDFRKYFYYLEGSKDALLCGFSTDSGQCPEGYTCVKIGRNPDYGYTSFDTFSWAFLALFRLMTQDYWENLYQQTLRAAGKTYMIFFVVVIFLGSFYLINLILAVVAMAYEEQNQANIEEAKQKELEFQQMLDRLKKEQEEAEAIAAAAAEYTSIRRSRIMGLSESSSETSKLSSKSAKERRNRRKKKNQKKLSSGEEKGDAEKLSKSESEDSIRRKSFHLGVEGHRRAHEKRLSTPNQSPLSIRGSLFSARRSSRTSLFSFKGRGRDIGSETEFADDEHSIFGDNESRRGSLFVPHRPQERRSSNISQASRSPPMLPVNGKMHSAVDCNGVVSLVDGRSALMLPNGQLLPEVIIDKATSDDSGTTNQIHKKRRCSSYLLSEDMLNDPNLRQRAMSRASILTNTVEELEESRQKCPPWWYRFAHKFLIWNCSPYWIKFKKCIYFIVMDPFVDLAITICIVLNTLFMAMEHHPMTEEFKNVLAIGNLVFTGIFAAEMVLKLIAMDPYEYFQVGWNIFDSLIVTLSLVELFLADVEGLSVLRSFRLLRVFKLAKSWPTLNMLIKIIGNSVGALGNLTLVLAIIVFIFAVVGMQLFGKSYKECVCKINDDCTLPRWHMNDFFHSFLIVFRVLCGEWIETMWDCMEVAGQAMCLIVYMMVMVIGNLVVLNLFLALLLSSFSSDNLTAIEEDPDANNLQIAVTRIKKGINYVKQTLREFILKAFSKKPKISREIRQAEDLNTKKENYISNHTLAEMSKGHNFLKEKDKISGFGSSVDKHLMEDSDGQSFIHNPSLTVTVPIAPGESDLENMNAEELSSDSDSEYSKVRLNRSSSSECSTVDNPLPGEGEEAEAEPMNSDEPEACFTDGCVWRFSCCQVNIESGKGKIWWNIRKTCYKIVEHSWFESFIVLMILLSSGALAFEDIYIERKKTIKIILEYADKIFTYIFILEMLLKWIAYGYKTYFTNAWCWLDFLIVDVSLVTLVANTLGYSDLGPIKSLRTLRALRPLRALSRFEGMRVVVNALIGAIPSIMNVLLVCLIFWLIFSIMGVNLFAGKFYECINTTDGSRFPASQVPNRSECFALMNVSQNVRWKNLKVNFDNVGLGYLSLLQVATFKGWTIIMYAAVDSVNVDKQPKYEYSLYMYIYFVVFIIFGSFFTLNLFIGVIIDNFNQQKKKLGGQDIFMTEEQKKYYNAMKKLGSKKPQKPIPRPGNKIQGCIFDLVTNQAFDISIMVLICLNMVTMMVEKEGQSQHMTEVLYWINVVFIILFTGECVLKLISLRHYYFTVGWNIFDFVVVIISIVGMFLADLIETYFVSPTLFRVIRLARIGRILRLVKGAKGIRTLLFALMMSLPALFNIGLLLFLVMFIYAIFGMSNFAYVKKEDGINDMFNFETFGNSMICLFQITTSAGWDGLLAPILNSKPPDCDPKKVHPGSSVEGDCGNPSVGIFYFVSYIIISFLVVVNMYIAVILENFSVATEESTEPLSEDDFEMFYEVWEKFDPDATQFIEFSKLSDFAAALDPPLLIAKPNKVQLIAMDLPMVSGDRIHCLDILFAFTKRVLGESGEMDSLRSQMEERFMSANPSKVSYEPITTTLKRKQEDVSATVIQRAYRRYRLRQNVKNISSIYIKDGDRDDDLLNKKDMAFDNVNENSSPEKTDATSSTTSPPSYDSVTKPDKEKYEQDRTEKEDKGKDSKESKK

Row | IC50 (Nav 1.7 [1]) [nM] | IC50 (Nav 1.7 [2]) [nM] | inhibition at 4.9 µM (Nav 1.7 [2]) [%] | Structure (SMILES) | IC50 (Nav 1.5) [nM]
1 | 475 | 1320 |  | O=S(=O)(Nc1nccs1)c1ccc2c(c1)OCCN2c1ccc2c(c1)OC(F)(F)O2 [Example 127, 4-(2,2-Difluorobenzo[d][1,3]dioxol-5-yl)-N-(thiazol-2-yl)-3,4-dihydro-2H-benzo[b][1,4]oxazine-7-sulfonamide] | > 10000
2 | 69.5 | 912 |  | N#Cc1ccc(OC(F)(F)F)cc1N1CCOc2cc(S(=O)(=O)Nc3nccs3)ccc21 [Example 128, 4-(2-Cyano-5-(trifluoromethoxy)phenyl)-N-(thiazol-2-yl)-3,4-dihydro-2H-benzo[b][1,4]oxazine-7-sulfonamide] | 3690
3 | 263 | 2900 |  | O=S(=O)(Nc1nccs1)c1ccc2c(c1)OCCN2c1cccc2c1OC(F)(F)O2 [Example 129, 4-(2,2-Difluorobenzo[d][1,3]dioxol-4-yl)-N-(thiazol-2-yl)-3,4-dihydro-2H-benzo[b][1,4]oxazine-7-sulfonamide] | > 10000
4 | 635 | 5290 |  | O=S(=O)(Nc1nccs1)c1ccc2c(c1)OCCN2c1cncc(Cl)c1 [Example 130, 4-(5-Chloropyridin-3-yl)-N-(thiazol-2-yl)-3,4-dihydro-2H-benzo[b][1,4]oxazine-7-sulfonamide] | 6200
5 | 1310 | 23300 |  | COc1cncc(N2CCOc3cc(S(=O)(=O)Nc4nccs4)ccc32)c1 [Example 131, 4-(5-Methoxypyridin-3-yl)-N-(thiazol-2-yl)-3,4-dihydro-2H-benzo[b][1,4]oxazine-7-sulfonamide] | > 10000
6 | 1590 |  | 20.2 | Cc1cncc(C)c1N1CCOc2cc(S(=O)(=O)Nc3nccs3)ccc21 [Example 133, 4-(3,5-Dimethylpyridin-4-yl)-N-(thiazol-2-yl)-3,4-dihydro-2H-benzo[b][1,4]oxazine-7-sulfonamide] | > 10000
7 | 1340 | 17100 |  | Cc1cc(N2CCOc3cc(S(=O)(=O)Nc4nccs4)ccc32)c(C)cn1 [Example 134, 4-(2,5-Dimethylpyridin-4-yl)-N-(thiazol-2-yl)-3,4-dihydro-2H-benzo[b][1,4]oxazine-7-sulfonamide] | > 10000
8 | 2680 |  | 22.6 | Cc1ccc(C#N)c(N2CCOc3cc(S(=O)(=O)Nc4nccs4)ccc32)n1 [Example 135, 4-(3-Cyano-6-methylpyridin-2-yl)-N-(thiazol-2-yl)-3,4-dihydro-2H-benzo[b][1,4]oxazine-7-sulfonamide] | > 10000
9 | 2980 |  | 27.4 | O=S(=O)(Nc1nccs1)c1ccc2c(c1)OCCN2c1ncc(F)cc1F [Example 136, 4-(3,5-Difluoropyridin-2-yl)-N-(thiazol-2-yl)-3,4-dihydro-2H-benzo[b][1,4]oxazine-7-sulfonamide] | > 10000
10 | 914 | 21700 |  | COc1cc(C)c(N2CCOc3cc(S(=O)(=O)Nc4nccs4)ccc32)cn1 [Example 137, 4-(6-Methoxy-4-methylpyridin-3-yl)-N-(thiazol-2-yl)-3,4-dihydro-2H-benzo[b][1,4]oxazine-7-sulfonamide] | > 10000
11 | 860 | 11500 |  | CCOc1ccc(N2CCOc3cc(S(=O)(=O)Nc4nccs4)ccc32)cn1 [Example 138, 4-(6-Ethoxypyridin-3-yl)-N-(thiazol-2-yl)-3,4-dihydro-2H-benzo[b][1,4]oxazine-7-sulfonamide] | 3830
12 | 69.5 | 415 |  | COc1ccc(OC)c(N2CCOc3cc(S(=O)(=O)Nc4nccs4)ccc32)c1 [Example 139, 4-(2,5-Dimethoxyphenyl)-N-(thiazol-2-yl)-3,4-dihydro-2H-benzo[b][1,4]oxazine-7-sulfonamide] | 7040
13 | 451 | 1340 |  | Cc1cc(OC(F)(F)F)ccc1N1CCOc2cc(S(=O)(=O)Nc3nccs3)ccc21 [Example 140, 4-(2-Methyl-4-(trifluoromethoxy)phenyl)-N-(thiazol-2-yl)-3,4-dihydro-2H-benzo[b][1,4]oxazine-7-sulfonamide] | 6600
14 | 671 | 6420 |  | O=S(=O)(Nc1nccs1)c1ccc2c(c1)OCCN2c1ccc(-n2cccn2)cc1 [Example 141, 4-(4-(1H-pyrazol-1-yl)phenyl)-N-(thiazol-2-yl)-3,4-dihydro-2H-benzo[b][1,4]oxazine-7-sulfonamide] | 2500
15 | 2210 |  | 33.9 | N#Cc1cccc(Cl)c1N1CCOc2cc(S(=O)(=O)Nc3nccs3)ccc21 [Example 142, 4-(2-Chloro-6-cyanophenyl)-N-(thiazol-2-yl)-3,4-dihydro-2H-benzo[b][1,4]oxazine-7-sulfonamide] | > 10000
16 | 1010 | 9070 |  | COc1cnc(N2CCOc3cc(S(=O)(=O)Nc4nccs4)ccc32)c(OC)n1 [Example 143, 4-(3,5-Dimethoxypyrazin-2-yl)-N-(thiazol-2-yl)-3,4-dihydro-2H-benzo[b][1,4]oxazine-7-sulfonamide] | > 10000
17 | 894 | 7670 |  | COc1cnc(N2CCOc3cc(S(=O)(=O)Nc4nccs4)ccc32)c(OC)c1 [Example 144, 4-(3,5-Dimethoxypyridin-2-yl)-N-(thiazol-2-yl)-3,4-dihydro-2H-benzo[b][1,4]oxazine-7-sulfonamide] | > 10000
18 | 235 | 11800 |  | COc1ncc(C(F)(F)F)cc1N1CCOc2cc(S(=O)(=O)Nc3nccs3)ccc21 [Example 145, 4-(2-Methoxy-5-(trifluoromethyl)pyridin-3-yl)-N-(thiazol-2-yl)-3,4-dihydro-2H-benzo[b][1,4]oxazine-7-sulfonamide] | 7380
19 | 416 | 4730 |  | Cc1cc(OC(F)F)cnc1N1CCOc2cc(S(=O)(=O)Nc3nccs3)ccc21 [Example 146, 4-(5-(Difluoromethoxy)-3-methylpyridin-2-yl)-N-(thiazol-2-yl)-3,4-dihydro-2H-benzo[b][1,4]oxazine-7-sulfonamide] | 5220
20 | 107 | 1990 |  | O=S(=O)(Nc1nccs1)c1ccc2c(c1)OCCN2c1ccccc1-c1ccncc1 [Example 147, 4-(2-(Pyridin-4-yl)phenyl)-N-(thiazol-2-yl)-3,4-dihydro-2H-benzo[b][1,4]oxazine-7-sulfonamide] | > 10000
21 | 66.5 | 782 |  | Cn1nccc1-c1ccccc1N1CCOc2cc(S(=O)(=O)Nc3nccs3)ccc21 [Example 148, 4-(2-(1-Methyl-1H-pyrazol-5-yl)phenyl)-N-(thiazol-2-yl)-3,4-dihydro-2H-benzo[b][1,4]oxazine-7-sulfonamide] | > 10000
22 | 198 | 2550 |  | O=S(=O)(Nc1nccs1)c1ccc2c(c1)OCCN2c1ccccc1C1CCOCC1 [Example 149, 4-(2-(Tetrahydro-2H-Pyran-4-Yl)Phenyl)-N-(Thiazol-2-Yl)-3,4-Dihydro-2H-Benzo[B][1,4]Oxazine-7-Sulfonamide] | > 10000
23 | 17 | 192 |  | COc1cc(F)ccc1N1CCOc2cc(S(=O)(=O)Nc3nccs3)ccc21 [Example 150, 4-(4-Fluoro-2-methoxyphenyl)-N-(thiazol-2-yl)-3,4-dihydro-2H-benzo[b][1,4]oxazine-7-sulfonamide] | 5580
24 | 13.5 | 158 |  | COc1ccc(F)cc1N1CCOc2cc(S(=O)(=O)Nc3nccs3)ccc21 [Example 151, 4-(5-Fluoro-2-methoxyphenyl)-N-(thiazol-2-yl)-3,4-dihydro-2H-benzo[b][1,4]oxazine-7-sulfonamide] | > 10000
25 | 1630 | 2780 |  | N#Cc1cc(C(F)(F)F)ccc1N1CCOc2cc(S(=O)(=O)Nc3cscn3)ccc21 [Example 152, 4-(2-cyano-4-(trifluoromethyl)phenyl)-N-(thiazol-4-yl)-3,4-dihydro-2H-benzo[b][1,4]oxazine-7-sulfonamide] | 9420
26 | 2370 | 12600 |  | O=S(=O)(Nc1nccs1)c1ccc2c(c1)OCCN2c1ccc(Cl)c(F)c1 [Example 155, 4-(4-Chloro-3-Fluorophenyl)-N-(Thiazol-2-Yl)-3,4-Dihydro-2H-Benzo[B][1,4]Oxazine-7-Sulfonamide 2,2,2-Trifluoroacetate] | > 10000
27 | 2280 | 2600 |  | Cc1cc(N2CCOc3cc(S(=O)(=O)Nc4nccs4)ccc32)ccc1Cl [Example 156, 4-(4-Chloro-3-Methylphenyl)-N-(Thiazol-2-Yl)-3,4-Dihydro-2H-Benzo[B][1,4]Oxazine-7-Sulfonamide 2,2,2-Trifluoroacetate] | 3930
28 | 1490 | 4510 |  | COc1cnccc1N1CCOc2cc(S(=O)(=O)Nc3nccs3)ccc21 [Example 158, 4-(3-methoxypyridin-4-yl)-N-(thiazol-2-yl)-3,4-dihydro-2H-benzo[b][1,4]oxazine-7-sulfonamide] | > 10000
29 | 1420 | 8150 |  | N#Cc1cccc(F)c1N1CCOc2cc(S(=O)(=O)Nc3nccs3)ccc21 [Example 159, 4-(2-Cyano-6-Fluorophenyl)-N-(Thiazol-2-Yl)-3,4-Dihydro-2H-Benzo[B][1,4]Oxazine-7-Sulfonamide] | > 10000
30 | 700 | 3750 |  | O=S(=O)(Nc1nccs1)c1ccc2c(c1)OCCN2c1ccccc1 [Example 165, 4-phenyl-N-(thiazol-2-yl)-3,4-dihydro-2H-benzo[b][1,4]oxazine-7-sulfonamide] | > 10000
